# Measurements taken from PubChem BioAssay (NCI).
#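 Where inhibition never reached the appropriate level, the endpoint shown equals the highest concentration tested. Otherwise, values were interpolated linearly from a five-concentration, 48-hour dose response in 96-well plates. Here, GI50 denotes the concentration required for 50% inhibition of growth. TGI is the concentration that stops growth completely.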
# Assays:
# Assay in all cases: DTP human tumour cell line panel, 48 h
# [1] = test system: T-47D breast
# [2] = test system: TK-10 renal
# [3] = test system: COLO 205 colon
# [4] = test system: M14 melanoma
# [5] = test system: UACC-62 melanoma
# [6] = test system: EKVX NSCLC
# [7] = test system: PC-3 prostate
# [8] = test system: SR leukemia
# [9] = test system: K-562 leukemia
# [10] = test system: RXF 393 renal
# [11] = test system: NCI/ADR-RES ovarian
# [12] = test system: OVCAR-4 ovarian
# [13] = test system: HCT-116 colon
# [14] = test system: HS 578T breast
# [15] = test system: UO-31 renal
# [16] = test system: DU-145 prostate
# [17] = test system: HOP-92 NSCLC
# [18] = test system: CAKI-1 renal
# [19] = test system: UACC-257 melanoma
# [20] = test system: HCC-2998 colon
# [21] = test system: MDA-MB-435
# [22] = test system: NCI-H226 lung
# [23] = test system: SF-268 CNS
# [24] = test system: LOX IMVI melanoma
# [25] = test system: U251 CNS
# [26] = test system: MOLT-4 leukemia
# [27] = test system: MDA-MB-231 breast
# [28] = test system: ACHN renal
# [29] = test system: CCRF-CEM leukemia
# [30] = test system: NCI-H23 lung
# [31] = test system: OVCAR-8 ovarian
# [32] = test system: SF-539 CNS
# [33] = test system: OVCAR-5 ovarian
# [34] = test system: SNB-19 CNS
# [35] = test system: A549 NSCLC
# [36] = test system: A498 renal
# [37] = test system: NCI-H522 lung
# [38] = test system: HCT-15 colon
# [39] = test system: OVCAR-3 ovarian
# [40] = test system: MCF7 breast
# [41] = test system: SNB-75 CNS
# [42] = test system: HT29 colon
# [43] = test system: KM12 colon
# [44] = test system: HL-60(TB) leukemia
# [45] = test system: SK-MEL-5 melanoma
# [46] = test system: SN12C renal
# [47] = test system: SK-MEL-28 melanoma
# [48] = test system: HOP-62 NSCLC
# [49] = test system: SF-295 CNS
# [50] = test system: MALME-3M melanoma
# [51] = test system: 786-0 renal
# [52] = test system: SK-MEL-2 melanoma
# [53] = test system: SW-620 colon
# [54] = test system: RPMI-8226 leukemia
# [55] = test system: IGROV1 ovarian
# [56] = test system: BT-549 breast
# [57] = test system: SK-OV-3 ovarian
# [58] = test system: NCI-H460 lung
compound,measurement,setting,value
COc1ccccc1/C=C/C(=O)/C=C/c1ccccc1OC,GI50,[1],1.47 µM
same,TGI,[1],8.4 µM
same,GI50,[2],3.52 µM
same,TGI,[2],8.83 µM
same,GI50,[3],1.94 µM
same,TGI,[3],3.5 µM
same,GI50,[4],1.65 µM
same,TGI,[4],3.68 µM
same,GI50,[5],1.65 µM
same,TGI,[5],3.41 µM
same,GI50,[6],2.42 µM
same,TGI,[6],6.22 µM
same,GI50,[7],2.26 µM
same,TGI,[7],7.03 µM
same,GI50,[8],1.18 µM
same,TGI,[8],8.22 µM
same,GI50,[9],2.83 µM
same,TGI,[9],12.4 µM
same,GI50,[10],1.6 µM
same,TGI,[10],3.06 µM
same,GI50,[11],2.53 µM
same,TGI,[11],8.98 µM
same,GI50,[12],1.51 µM
same,TGI,[12],16.6 µM
same,GI50,[13],1.27 µM
same,TGI,[13],2.62 µM
same,GI50,[14],3.4 µM
same,TGI,[14],39.2 µM
same,GI50,[15],1.83 µM
same,TGI,[15],3.33 µM
same,GI50,[16],1.96 µM
same,TGI,[16],4.15 µM
same,GI50,[17],2.1 µM
same,TGI,[17],5.04 µM
same,GI50,[18],3.16 µM
same,TGI,[18],7.94 µM
same,GI50,[19],1.69 µM
same,TGI,[19],3.72 µM
same,GI50,[20],1.92 µM
same,TGI,[20],3.37 µM
same,GI50,[21],2.04 µM
same,TGI,[21],5.61 µM
same,GI50,[22],1.71 µM
same,TGI,[22],3.18 µM
same,GI50,[23],1.92 µM
same,TGI,[23],4.57 µM
same,GI50,[24],1.53 µM
same,TGI,[24],3.01 µM
same,GI50,[25],1.55 µM
same,TGI,[25],3.24 µM
same,GI50,[26],2.4 µM
same,TGI,[26],9.06 µM
same,GI50,[27],2.97 µM
same,TGI,[27],8.75 µM
same,GI50,[28],1.91 µM
same,TGI,[28],3.49 µM
same,GI50,[29],2.04 µM
same,TGI,[29],9.19 µM
same,GI50,[30],1.75 µM
same,TGI,[30],3.92 µM
same,GI50,[31],2.58 µM
same,TGI,[31],8.88 µM
same,GI50,[32],2.82 µM
same,TGI,[32],6.33 µM
same,GI50,[33],3.16 µM
same,TGI,[33],6.47 µM
same,GI50,[34],1.84 µM
same,TGI,[34],4.1 µM
same,GI50,[35],2.35 µM
same,TGI,[35],7 µM
same,GI50,[36],1.54 µM
same,TGI,[36],3.06 µM
same,GI50,[37],1.67 µM
same,TGI,[37],3.26 µM
same,GI50,[38],2.27 µM
same,TGI,[38],10.5 µM
same,GI50,[39],1.68 µM
same,TGI,[39],3.68 µM
same,GI50,[40],0.37 µM
same,TGI,[40],3.81 µM
same,GI50,[41],2.23 µM
same,TGI,[41],11.6 µM
same,GI50,[42],2.24 µM
same,TGI,[42],5.04 µM
same,GI50,[43],1.57 µM
same,TGI,[43],3.39 µM
same,GI50,[44],2.69 µM
same,TGI,[44],8.45 µM
same,GI50,[45],1.5 µM
same,TGI,[45],2.87 µM
same,GI50,[46],2.06 µM
same,TGI,[46],5.21 µM
same,GI50,[47],1.67 µM
same,TGI,[47],3.18 µM
same,GI50,[48],3 µM
same,TGI,[48],6.92 µM
same,GI50,[49],3.74 µM
same,TGI,[49],10.5 µM
same,GI50,[50],2.11 µM
same,TGI,[50],4.35 µM
same,GI50,[51],1.85 µM
same,TGI,[51],3.59 µM
same,GI50,[52],2.29 µM
same,TGI,[52],4.95 µM
same,GI50,[53],1.51 µM
same,TGI,[53],3.37 µM
same,GI50,[54],2.25 µM
same,TGI,[54],8.43 µM
same,GI50,[55],1.6 µM
same,TGI,[55],3.2 µM
same,GI50,[56],1.6 µM
same,TGI,[56],3.19 µM
same,GI50,[57],2.94 µM
same,TGI,[57],8.66 µM
same,GI50,[58],2.16 µM
same,TGI,[58],5.64 µM
